Test results reported in US20250042880A1 (UNIVERSITY OF KENTUCKY RESEARCH FOUNDATION, priority 2021, published 2025).
Entries after “also recorded” stand apart in the source; their conditions may differ.

Key:
[1] = test system: SKOV-3 ovarian cancer xenograft; conditions: 4.5 mg/kg/day for 4 weeks; cited from earlier work
[2] = administered in vivo; cited from earlier work
Pt2377 cells = assay: Cell proliferation inhibition assay, Pt2377; type: cell-based
Procedure: Cell proliferation inhibition assay-Cell proliferation inhibition assay was performed as previously reported (48). All compounds to be tested were dissolved at 10 mM in DMSO. The cells were seeded into 12-well plates at a density of 40,000 cells per well in 1 mL of culture medium and were cultured overnight at 37° C. Either 1 μL of the compounds or the vehicle control (DMSO) was added to the cells. After 5 days, the medium was removed, and 200 μL of 0.25% trypsin was added. The cells were resuspended in 800 μL phosphate-buffered saline (PBS) and counted with Vi-CELL XR 2.03 (Beckman Coulter, Inc. USA). The ratio R of the number of viable cells in the compound-treated group to the number of viable cells in the DMSO-treated group was called relative growth rate, and the growth inhibition was calculated as (1−R)*100.

SKOV-3 cells = conditions: growth inhibition; cited from earlier work
[3] = test system: AMPK, mTOR and Wnt signaling; assay: Western blotting of cell signaling pathways in CRC cells; type: cell-based
Procedure: Western blotting-Western blotting was carried out following previously reported procedures (50). Cells were incubated in 6-well plates and were treated with either DMSO or compounds dissolved in DMSO at indicated concentrations. Cells were lysed in 500 μl of lysis buffer: 50 mM HEPES, 100 mM NaCl, 2 mM EDTA, 1% (v/v) glycerol, 50 mM NaF, 1 mM Na3VO4, 1% (v/v) Triton X-100, with protease inhibitors (Sigma, P8340). The cell lysates were centrifuged (18,000×g, 10 min) and then 6× protein loading buffer was added to the suppernatants. The samples were boiled for 3 min and analyzed by standard Western blotting methods with the indicated antibodies.
Western blotting was performed as previously reported procedures (41). Cells were split into 6-well plates and incubated for 24 hours. Either DMSO or compounds dissolved in DMSO at indicated concentrations were added to each well for another 24 hours. Cells were lysed in 500 μL of lysis buffer containing 50 mmol/L HEPES, 100 mmol/L NaCl, 2 mmol/L EDTA, 1% (v/v) glycerol, 50 mmol/L NaF, 1 mmol/L Na3VO4, 1% (v/v) Triton X-100, and protease inhibitors (Sigma, P8340). Cell lysates were centrifuged for 10 minutes (18,000×g), and the supernatants were mixed with 6×protein loading buffer and boiled for 3 minutes. The samples were analyzed by standard Western blotting methods using the appropriate antibodies.

Row | Structure (SMILES) | average weight loss compared to the control group [1] | reduction of average tumor volumes [1] | reduction of tumor weights [1] | oral availability [2] | inhibition of proliferation of Pt2377 cells (Pt2377 cells) | IC50 (SKOV-3 cells) | effects on AMPK (pAMPK, pACC), mTOR (p70S6K, pS6) and Wnt (Axin2, c-Myc) signaling ([3]; 3 μM alone, LS174T cells, 24 hours) | AMPK phosphorylation (activation) ([3]; 3 μM, LS174T CRC cells)
1 | Cc1c(NC(=O)c2cc(C(N)=O)nc3cc(F)ccc23)c(C(F)(F)F)nn1Cc1ccc(C#N)cc1 [BAY-876, N^4-[1-(4-cyanobenzyl)-5-methyl-3-(trifluoromethyl)-1H-pyrazol-4-yl]-7-fluoroquinoline-2,4-dicarboxamide] | 18% | 68% | 66% | orally available | inhibited the proliferation of these cell lines at nanomolar concentrations | 188 nM | – | –
2 | O=c1c(-c2ccc(Cl)c(Cl)c2)coc2cc(OCCN3CCN(CCO)CC3)ccc12 [DBI-6, 3-(3,4-dichlorophenyl)-7-(2-(4-(2-hydroxyethyl)piperazin-1-yl)ethoxy)-4H-chromen-4-one] | – | – | – | – | – | – | activated AMPK signaling (pAMPK and pACC) and inhibited mTOR signaling (p70S6K and pS6); also recorded: more active than DBI-1 | best activity in AMPK activation
